Test results reported in ChEMBL document CHEMBL1127900, “Preparative chiral HPLC separation of all possible stereoisomers of LY191704 and LY266111 and their in vitro inhibition of human types 1 and 2 steroid 5-reductases” (Bioorg Med Chem Lett, 1994).
pKi: −log10 of the molar value.

Tests used:
[1] = biological target: T1, 3-oxo-5-alpha-steroid 4-dehydrogenase 1 (Homo sapiens, UniProt P18405); assay: In vitro inhibition of recombinant human Steroid 5-alpha-reductase type I; settings: read-out: Ki app
T1 sequence (P18405 whole entry): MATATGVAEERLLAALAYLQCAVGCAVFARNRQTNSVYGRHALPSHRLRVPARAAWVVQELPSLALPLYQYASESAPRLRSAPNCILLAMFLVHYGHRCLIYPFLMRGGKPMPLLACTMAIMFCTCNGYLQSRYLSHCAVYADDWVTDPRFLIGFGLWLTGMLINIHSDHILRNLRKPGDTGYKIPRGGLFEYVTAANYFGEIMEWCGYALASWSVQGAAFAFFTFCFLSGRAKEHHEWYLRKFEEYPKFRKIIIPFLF

[2] = biological target: T2, 3-oxo-5-alpha-steroid 4-dehydrogenase 2 (Homo sapiens, UniProt P31213); assay: In vitro inhibition of recombinant human Steroid 5-alpha-reductase type 2; settings: read-out: Ki app
T2 sequence (P31213 whole entry): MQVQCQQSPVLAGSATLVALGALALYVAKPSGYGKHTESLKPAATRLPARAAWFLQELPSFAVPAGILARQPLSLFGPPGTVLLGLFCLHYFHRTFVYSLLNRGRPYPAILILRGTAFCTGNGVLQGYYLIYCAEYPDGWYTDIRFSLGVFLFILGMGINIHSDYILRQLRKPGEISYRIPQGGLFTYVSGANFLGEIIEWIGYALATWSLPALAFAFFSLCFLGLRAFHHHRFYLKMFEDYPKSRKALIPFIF

[3] = biological target: T2, 3-oxo-5-alpha-steroid 4-dehydrogenase 2; assay: In vitro inhibition of recombinant human Steroid 5-alpha-reductase type 2; No inhibition

| pKi [1] | pKi [2] | Ki app [3] | SMILES |
| --- | --- | --- | --- |
| 8.05 | < 6.00 | – | CN1C(=O)CC[C@]2(C)c3ccc(Cl)cc3CC[C@@H]12 (stereo in doubt; (+)) |
| 5.40 | < 5.60 | – | CN1C(=O)CC[C@]2(C)c3ccc(Cl)cc3CC[C@H]12 (stereo in doubt; (+)-4) |
| 8.00 | < 6.00 | – | CN1C(=O)CC[C@]2(C)c3ccc(Cl)cc3CC[C@@H]12 (stereo in doubt; (-)) |
| 5.15 | < 5.60 | – | CN1C(=O)CC[C@]2(C)c3ccc(Cl)cc3CC[C@H]12 (stereo in doubt; (-)-4) |

More lines, now with the values behind:

| SMILES | pKi [1] | pKi [2] | Ki app [3] |
| --- | --- | --- | --- |
| CN1C(=O)CCC2=C1CCc1cc(Cl)ccc12 | 7.77 | 6.34 | – |
| CN1C(=O)CC[C@@]2(C)C1=CCc1cc(Cl)ccc12 (racemic) | 6.74 | – | Not Active |
| CN1C(=O)CC[C@@H]2c3ccc(Cl)cc3CC[C@H]21 (stereo in doubt; (+)) [BEXLOSTERIDE] | 8.22 | 6.00 | – |
| CN1C(=O)CC[C@@H]2c3ccc(Cl)cc3CC[C@@H]21 (stereo in doubt; (+)-3) | 7.82 | 6.00 | – |
| CN1C(=O)CC[C@@H]2c3ccc(Cl)cc3CC[C@H]21 (stereo in doubt; (-)) [BEXLOSTERIDE] | 8.40 | 5.92 | – |
| CN1C(=O)CC[C@@H]2c3ccc(Cl)cc3CC[C@@H]21 (stereo in doubt; (-)-3) | 7.82 | 5.27 | – |
